Test results reported in publication PMC8087101, “Human parvovirus B19 interacts with globoside under acidic conditions as an essential step in endocytic trafficking” (PLoS Pathogens, 2021).

Target: T1, B19V (native virus capsid) (Human parvovirus B19 strain HV, UniProt Q9PZT0)
T1 construct: gene vp; icosahedral capsid of 60 VP1 and VP2 proteins; with Minor capsid protein VP1
Assay: hemagglutination inhibition of human red blood cells by soluble Gb4; binding to cells also by qPCR
Assay type: cell-based
Conditions: pH 6.3, PiBS, room temperature; ceramide of natural source (Matreya), in DMSO; Gb3 as control lipid

globoside [Gb4]
hemagglutination inhibition, effective concentration: 0.2 to 0.4 µM
